What was measured:
Format in all cases: in vivo, rat
[1] = test system: hemi-parathyroidectomy model; experiment: Administration of AXT914 in hemi-parathyroidectomy model (Experimental Schedule 1): serum PTH, calcium, phosphorus, urine calcium/creatinine; conditions: for urine calcium/creatinine ratio: 24 h urine on Day 13
Experimental: (§1) 9-week-old female Wistar rats were purchased from Koatech Co., Ltd. (Korea), and housed in an SPF room at a temperature of 21 to 23° C. and a humidity of 40 to 60% using a standard cage and under 12 hours cycles of light and darkness. The rats were acclimatized to the room for 1 week while being fed with a standard laboratory feed, and then used in the experiment. All care and experiments of experimental animals were performed following the guidelines by Animal Research Institute of Medical Science at Dongguk University, and the experimental schedule was approved by the Animal Institutional Review Board (AIRB No. 2016-04149 and AIRB No. 2019-07188).
(§2) To construct a post-surgical hypoparathyroidism rat model, 10-week-old rats acclimatized for 1 week were used.
(§3) To identify the parathyroid gland, a photosensitization method using 5-aminolevulinic acid hydrochloride (5-ALA) was performed. Briefly, a 50 mg/mL 5-ALA solution was prepared by suspending a 5-ALA powder (Sigma-Aldrich Korea, 5-aminolevulinic acid, #A3785, purity ≥98%) in a 0.9% NaCl solution. The rats were injected intraperitoneally with 500 mg/kg of the 5-ALA solution and after 2 hours, intramuscularly with Zoletil 50 (Virbac Laboratories, France) (0.1 mL/kg of body weight) and Rompun® (Bayer, Germany) (0.1 mL/kg of body weight). The anesthetized rats were laid down and the anterior neck and chest area were disinfected with povidone-iodine. In the surgical procedure, the trachea and the thyroid glands were exposed by incising the skin longitudinally from the midline of the neck. Both parathyroid glands showing a red fluorescent color were identified using blue light with a wavelength of 405±3 nm (Ergonomic LED Light Sources, Ocean Optics Inc., #LS-405, USA). In the case of the hemi-parathyroidectomy model, only one of both the parathyroid glands was removed. In the case of total parathyroidectomy and auto-transplantation model, both the parathyroid glands were removed, and then cut into small pieces, put into a small pocket made in the right sternocleidomastoid muscle (SCM), and the pocket was sutured with a […].
(§4) AXT914 was obtained by Novartis Pharma AG (Switzerland). The AXT914 was prepared in the form of a microemulsion by the following method. Briefly, after Cremophor RH40 was heated to 65° C. with stirring, the Cremophor RH40, Capmul MCM, triethyl citrate, and ethanol absolute were mixed at a weight ratio of 34.6%, 42%, 8.4%, and 10%, respectively. After a clear solution obtained by stirring the mixture for 1 hour was used as a vehicle and mixed with AXT914 (weight ratio of 5%), the resulting mixture was stirred at an ambient temperature for 8 to 12 hours. A finally obtained microemulsion preconcentrate was diluted 10 folds with deionized water (DW) and mixed vigorously before administration.
Referring to FIG. 1a, rats that had undergone hemi-parathyroidectomy were divided into a vehicle administration group (n=11), an AXT914 administration group 1 (n=10), and an AXT914 administration group 2 (n=11). A sham surgery group (n=9), which had undergone sham surgery, was also prepared. One week after the surgery, the AXT914 prepared in 1-3. was orally administered to the rats once daily for 2 weeks using a zonde needle. 5 mg/kg and 10 mg/kg of the AXT914 were administered to AXT914 administration groups 1 and 2, respectively. The vehicle (a mixture mixed with AXT914 in 1-3.) was orally administered to the vehicle administration group and the sham surgery group. Urine of the rats was collected for 24 hours on Day 13 after the start of drug administration. Blood was collected from the tails of the rats before the administration of drug (baseline) and from the tails of the rats at 0, 30, 120, 240, 360, and 720 minutes on Day 14 after the start of drug administration, and the rats were sacrificed. […]

[2] = test system: total parathyroidectomy and auto-transplantation model; experiment: Immunohistochemical staining of transplanted parathyroid tissue in SCM, total parathyroidectomy and auto-transplantation model (Experimental Schedule 3); conditions: Day 18; for expression of Ki67 (marker of cell proliferation) in transplanted parathyroid tissue: between administration groups
Experimental: as §1, §2, §3, §4
Referring to FIG. 1c, rats that had undergone total parathyroidectomy and auto-transplantation were divided into a vehicle administration group (n=11), an AXT914 administration group 1 (n=11), and an AXT914 administration group 2 (n=11). A sham surgery group (n=7), which had undergone sham surgery, was also prepared. Six days after the surgery, the AXT914 prepared in 1-3. was orally administered to the rats once daily every 5 days weekly for 18 days using a zonde needle, and the rats were sacrificed on Day 18 of the completion of administration and used for analysis. 10 mg/kg and 20 mg/kg of the AXT914 were orally administered to AXT914 administration groups 1 and 2, respectively. The vehicle was orally administered to the vehicle administration group and the sham surgery group. Blood was collected from the tails of the rats before the administration of drug (baseline) and collected from the tails of the rats on Day 18 of the completion of drug administration. A histological analysis was performed by sacrificing the rats to isolate SCMs with parathyroid glands autotransplanted. […]

[3] = test system: total parathyroidectomy and auto-transplantation model; experiment: Administration of AXT914 in total parathyroidectomy and auto-transplantation model (Experimental Schedule 2): serum PTH, calcium, phosphorus; conditions: 10 mg/kg oral once daily 3 weeks
Experimental: as §1, §2, §3, §4
Referring to FIG. 1b, rats that had undergone total parathyroidectomy and auto-transplantation were divided into a vehicle administration group (n=8) and an AXT914 administration group (n=8). A sham surgery group (n=6), which had undergone sham surgery, was also prepared. One week after the surgery, the AXT914 prepared in 1-3. was orally administered to the rats once daily for 3 weeks using a zonde needle, and the rats were sacrificed 1 week after the completion of administration and used for analysis. 10 mg/kg of AXT914 was administered to the AXT914 administration group. The vehicle was orally administered to the vehicle administration group and the sham surgery group. Blood was collected from the tails of the rats before the administration of drug (baseline) and from the tails of the rats on Day 21 and Day 28 after the start of drug administration.
Serum samples obtained by centrifugation of BD Microtainer SSTTM (prod. No. REF 365967, Becton Dickinson) containing blood, and were stored in a −80° C. deep freezer. […]

[4] = test system: total parathyroidectomy and auto-transplantation model; experiment: H&E staining of transplanted parathyroid tissue in SCM, total parathyroidectomy and auto-transplantation model (Experimental Schedule 3); conditions: Day 18, vs vehicle administration group
Experimental: as §1, §2
To identify the parathyroid gland, a photosensitization method using 5-aminolevulinic acid hydrochloride (5-ALA) was performed. Briefly, a 50 mg/mL 5-ALA solution was prepared by suspending a 5-ALA powder (Sigma-Aldrich Korea, 5-aminolevulinic acid, #A3785, purity ≥98%) in a 0.9% NaCl solution. The rats were injected intraperitoneally with 500 mg/kg of the 5-ALA solution and after 2 hours, intramuscularly with Zoletil 50 (Virbac Laboratories, France) (0.1 mL/kg of body weight) and Rompun® (Bayer, Germany) (0.1 mL/kg of body weight). […]

[5] = 10 mg/kg oral 5 days weekly for 18 days, vs vehicle administration group
[6] = 20 mg/kg oral 5 days weekly for 18 days, vs vehicle administration group
[7] = Day 21, vs vehicle administration group
[8] = Day 28 (7 days after drug discontinuation), vs vehicle administration group

Question: What does the source list for `C#CCOc1ccc2c(c1)c(-c1ccc(C(C)C)cc1)nc(=O)n2Cc1ccc(Br)cc1` [AXT914]?
Answer: serum PTH level ([1]; 5 mg/kg oral once daily 2 weeks (group 1), Day 14, 120 minutes, vs vehicle administration group): higher than that of the vehicle administration group; serum PTH level ([1]; 5 mg/kg oral once daily 2 weeks (group 1), Day 14, vs sham surgery group): no statistical difference from the sham surgery group; serum calcium level ([1]; 5 mg/kg oral once daily 2 weeks, Day 14, all times, vs vehicle administration group): significantly higher calcium levels than those of the vehicle administration group; serum phosphorus level ([1]; 5 mg/kg oral once daily 2 weeks, Day 14, vs sham surgery group): no statistical difference from the sham surgery group; serum calcium level ([1]; 5 mg/kg oral once daily 2 weeks, Day 14 at 0, 30 and 720 minutes, vs sham surgery group): no statistical difference from those of the sham surgery group; serum phosphorus level ([1]; 5 mg/kg oral once daily 2 weeks, Day 14 at 30, 120 and 360 minutes, vs vehicle administration group): significantly lower; urine calcium/creatinine ratio ([1]; 5 mg/kg oral once daily, vs sham surgery group): no difference between the sham surgery group and the AXT914 administration groups; urine calcium/creatinine ratio ([1]; 5 mg/kg oral once daily, vs vehicle administration group): vehicle administration group had a significantly higher urine calcium/creatinine ratio than the sham surgery group and the AXT914 administration groups; serum PTH level ([1]; 10 mg/kg oral once daily 2 weeks (group 2), Day 14, all times, vs the other groups): significantly higher than those in the other groups; serum calcium level ([1]; 10 mg/kg oral once daily 2 weeks, Day 14, all times, vs vehicle administration group): significantly higher calcium levels than those of the vehicle administration group; serum phosphorus level ([1]; 10 mg/kg oral once daily 2 weeks, Day 14, vs sham surgery group): no statistical difference from the sham surgery group; serum calcium level ([1]; 10 mg/kg oral once daily 2 weeks, Day 14 at 0 and 30 minutes, vs sham surgery group): no statistical difference from those of the sham surgery group; serum phosphorus level ([1]; 10 mg/kg oral once daily 2 weeks, Day 14 at 30, 240, 360 and 720 minutes, vs vehicle administration group): significantly lower; urine calcium/creatinine ratio ([1]; 10 mg/kg oral once daily, vs sham surgery group): no difference between the sham surgery group and the AXT914 administration groups; urine calcium/creatinine ratio ([1]; 10 mg/kg oral once daily, vs vehicle administration group): vehicle administration group had a significantly higher urine calcium/creatinine ratio than the sham surgery group and the AXT914 administration groups; expression of Ki67 (marker of cell proliferation) in transplanted parathyroid tissue ([2]; 10 mg/kg oral 5 days weekly for 18 days): not different between the administration groups; FGF2 positive cells in transplanted parathyroid tissue [2, 5]: not statistically significant, but showed an increasing pattern; increase in the expression of VEGFA in transplanted parathyroid tissue [2, 5]: about 6 fold; increase of expression level of PTH in transplanted parathyroid tissue [2, 5]: about 2 fold; increase of number of CD31 positive cells in transplanted parathyroid tissue [2, 5]: about 3 folds; expression of Ki67 (marker of cell proliferation) in transplanted parathyroid tissue ([2]; 20 mg/kg oral 5 days weekly for 18 days): not different between the administration groups; FGF2 positive cells in transplanted parathyroid tissue [2, 6]: not statistically significant, but showed an increasing pattern; expression of MCL1 in transplanted parathyroid tissue [2, 6]: not statistically significant in AXT914 administration group 2, but showed an increasing pattern; increase in the expression of VEGFA in transplanted parathyroid tissue [2, 6]: about 10 fold; increase of expression level of PTH in transplanted parathyroid tissue [2, 6]: about 2 fold; increase of number of CD31 positive cells in transplanted parathyroid tissue [2, 6]: about 4.5 folds; serum PTH level ([3]; Day 21, vs sham surgery group): lower than those in the sham surgery group; serum calcium level ([3]; Day 21, vs sham surgery group): no difference from those in the sham surgery group; serum phosphorus level ([3]; Day 21, vs sham surgery group): no difference from those in the sham surgery group; serum PTH level [3, 7]: significantly higher than those in the vehicle administration group; serum calcium level [3, 7]: significantly higher than those in the vehicle administration group; serum phosphorus level [3, 7]: significantly lower than those in the vehicle administration group; serum calcium level ([3]; Day 28 (7 days after drug discontinuation), vs sham surgery group): lower than those in the sham surgery group; serum calcium level [3, 8]: still higher than those in the vehicle administration group; serum phosphorus level [3, 8]: lower than those in the vehicle administration group, but there was no statistical difference; area increase of transplanted parathyroid tissue (H&E staining) ([4]; 10 mg/kg oral 5 days weekly for 18 days (group 1)): 36%; area increase of transplanted parathyroid tissue (H&E staining) ([4]; 20 mg/kg oral 5 days weekly for 18 days (group 2), significant): about 3 times

Reference: patent US12708625B2, “Pharmaceutical composition for improving or treating post-surgical hypoparathyroidism and treatment method using the same” (DONGGUK UNIVERSITY INDUSTRY-ACADEMIC COOPERATION FOUNDATION, priority 2019, dated 2026)
